The subject of the test is Adjuvant-Induced Arthritis (AIA) rats. Briefly: Adjuvant Induced Arthritis (AIA) rat model, Clinical Score. It is filed as in vivo. As to the method:
Peptides were tested in a rat model of AIA for their anti-inflammatory effects.
Disease Induction: AIA was induced in female Lewis rats aged 7-8 weeks by injection of heat-killed Mycobacerioum tuberculosis (Mt strain H37Ra, Difco Laboratories, USA) dispersed in incomplete Freund's adjuvant to a final concentration of 10 mg/ml (100 μl) at the base of the tail on day 0.
Measurement: Clinical Score (CS, 0-4) for each limb based on (a) joint inflammation, (b) redness, (c) deformity.
Efficacy Protocol 1 (5 rats per group). Peptide/control compound was injected intra-peritoneally (IP, 200 μl) on days 7-11 and 14-18.
Rats were sacrificed (CO2 inhalation) on day 43.
Efficacy Protocol 2 (8 rats per group). Group 1: peptide/PBS was injected intra-peritoneally (IP, 200 μl) on days 7-18; Group 2: PBS was injected IP on days 7-18; Group 3: Dexamethasone (Dexa) was injected IP on days 11 (Clinical Score (CS)1) and 13. Rats were sacrificed on day 43.
Combination Efficacy Protocol 1 (8 rats per group). Group 1: peptide injected IP on days 7-18; Group 2: PBS injected IP on days 7-18; Group 3: Dexa injected IP on day 11 (CS 1) and day 13; Group 4: Dexa injected IP on days 11 and 13 then peptide injected on days 14-22; Group 5: Dexa injected IP on days 11 and 13 then PBS injected on days 14-22.
Combination Efficacy Protocol 2 (8 rats per group). Group 1: peptide injected IP on days 7-18; Group 2: PBS injected IP on days 7-18; Group 3: Dexa injected IP on day 11 (CS 1) and day 13 then PBS on days 14-22; Group 4: PBS injected IP on days 7-10,12,14; Dexa injected on days 11, 13. Peptide injected on days 15-19.
Combination Efficacy Protocol 3 (8 rats per group). Group 1: peptide injected IP on days 7-18; Group 2: PBS injected IP on days 7-18; Group 3: Dexa injected IP on day 11 (CS 1) and day 13 then PBS on days 14-22; Group 4: peptide injected IP on days 7-10,12,14; Dexa injected on days 11, 13. Peptide injected on days 15-19.
Control Reagents for Adjuvant Induced Arthritis: Anti-Inflammatory Control: Dexamethasone Sodium Phosphate (Dexacort Forte, Teva) was dissolved in Phosphate Buffer Saline (PBS, GIBCO) to a final concentration of 1 mg/ml and injected in 200 μl (200 μg).
Negative Control: Phosphate Buffer Saline (PBS).

Setting [1] is: Dexa 200 μg IP on days 11 and 13.

Values joined by “and” are separate entries in the source; they are usually repeats but may differ in a detail not shown here. Equal values may be shown once.

On to “Dexamethasone Sodium Phosphate [reference compound]”, for which, under setting [1], the “day by which inflammation approached / was comparable with the disease, untreated group” value is 21 days and 28 days; the “day from which inflammation increased (onset of inflammation)” value was 15 days and 14 days. In addition, the “day until which inflammation was at the base line” value (Dexa IP on days 7-11 and 14-18, afterwards rose almost to the untreated, disease group) was 24 days.

Source of the values: US12072338B2, “Pharmaceutical peptides for the treatment of inflammatory diseases” (PROTAGONISTS LTD., priority 2007, dated 2024).
